Tested on: 598228-144-R-J1-PDC complex spheroids, viability
Assay: Anticancer human tumor 598228-144-R-J1-PDC patient-derived serous endometrial adenocarcinoma cell line growth inhibition [CLK]
Conditions: for IC50: curve of first compound; for viability, T/C: stronger effect = lower value
Source text: A high-throughput screen of multi-cell type tumor spheroids was designed to identify active combinations of […] and targeted small molecules. Complex spheroids include a stromal component modeled by human endothelial cells (HUVEC) and fibroblasts modeled by human mesenchymal stem cells (MSCs). The concentration ranges selected for each drug and investigational agent were based upon clinically achievable concentrations if the clinical Cmax of the agent was known.
Compounds. The drugs and investigational agents: cirtuvivint (SM08502; NSC835563), CC-671 (NSC850746), vemurafenib (NSC761431), tapotoclax (NSC804041), sotorasib (NSC818433), adagrasib (NSC831453), MRTX-1133 (NSC836407), BAY2416964 (NSC825713), copanlisib (NSC816437), inavolisib (NSC800729), abemaciclib (NSC768073), osimertinib (NSC779217), entinostat (NSC756642), eltanexor (KPT-8602, NSC794443), venetoclax (NSC766270), ceralasertib (NSC777638), bortezomib (NSC756655), olaparib (NSC753686), talazoparib (NSC767125), alisertib (NSC759677), peposertib (NSC802822), gemcitabine (NSC613327), 5-fluorouracil (NSC19893), SN-38 (NSC673596), oxaliplatin (NSC266046), paclitaxel (NSC125973), and doxorubicin (NSC123127), were obtained from the National Cancer Institute (NCI) Developmental Therapeutics Program Chemical Repository. The FDA-approved anticancer drug set is available from the Developmental Therapeutics Program at https://dtp.cancer.gov/organization/dscb/obtaining/available plates.htm. […] The stock solutions were prepared in dimethyl sulfoxide (DMSO, Sigma-Aldrich, St. Louis, MO, cat. D2650), except for the platinum complexes which were prepared in saline (Quality Biological, Gaithersburg, MD, cat. 114-055-101), at 800-fold the tested concentration and stored at -70 degrees C prior to their use. All drugs and investigational agents were tested over a range starting from a high concentration at or near the clinical Cmax and decreasing in half-log increments. If the clinical Cmax for an agent had not been determined, the highest concentration tested was 10 microM.
Cell Culture. All cells were maintained in an incubator at 37 degrees C and 5% CO2 with 95% humidity. The PDC lines were cultured according to standard operating procedures established by the NCI PDMR. Briefly, all PDCs were thawed and cultured in Matrigel-coated flasks prepared with a working solution of 1X Ham's F-12 nutrient mix, without supplementation (Invitrogen, Waltham, MA, cat. 11765054), 100 U/mL penicillin-streptomycin (Invitrogen, cat. 15140122), and 2.5% Matrigel (Corning Inc., Corning, NY, cat. 354248) for the first three passages. The 947758-054-R-J2-PDC line was cultured in 6B/Colon 1A media, which includes advanced DMEM/F-12 (Thermo Fisher Scientific, cat. 12634028), 10 mM HEPES (Thermo Fisher Scientific, cat. 15630080), 1X GlutaMAX supplement (Thermo Fisher Scientific, cat. 35050061), 0.1 mg/mL primocin (InvivoGen, cat. ant-pm-2), 10% defined fetal bovine serum, heat inactivated (HyClone Laboratories Inc., cat. SH30070.03HI), 1.25 mM N-Acetyl-L-cysteine (Sigma-Aldrich, cat. A9165), 10 mM nicotinamide (Sigma-Aldrich, cat. N0636), 1X B-27 supplement (Thermo Fisher Scientific, cat. 17504044), 1X N-2 supplement (Thermo Fisher Scientific, cat. 17502048), and 10 microM Y-27632 dihydrochloride (Tocris Bioscience, cat. 1254). The 876862-298-R-J1-PDC was cultured in 6E media, which includes all 6B/Colon 1A media components plus 50% L-WRN conditioned media (ATCC, cat. CRL-3276), 50 ng/mL recombinant human EGF recombinant protein (hEGF; Thermo Fisher Scientific, cat. PHG0311), 10 ng/mL recombinant human fibroblast growth factor 10 (hGFG-10; PeproTech, cat. 100-26), 1 ng/mL recombinant human fibroblast growth factor 2 (hFGF-2; PeproTech, cat. 100-18B), and 1 µM prostaglandin E2 (PGE2; Tocris, cat. 2296). The 227483-062-R1-J1-PDC line was cultured in Panc media, containing all 6E components except hFGF-2, with the addition of 500 nM SB-431542 (Selleckchem, cat. S1067) and 10 nM gastrin (Tocris, cat. 3006). […]

[1] = second compound 0.0316 µM, first compound 0.0316 µM
[2] = second compound 0.0316 µM, first compound 0.1 µM
[3] = second compound 0.0316 µM, first compound 0.316 µM
[4] = second compound 0.0316 µM, first compound 1 µM
[5] = second compound 0.1 µM, first compound 0.0316 µM
[6] = second compound 0.1 µM, first compound 0.1 µM
[7] = second compound 0.1 µM, first compound 0.316 µM
[8] = second compound 0.1 µM, first compound 1 µM
[9] = second compound 0.316 µM, first compound 0.0316 µM
[10] = second compound 0.316 µM, first compound 0.1 µM
[11] = second compound 0.316 µM, first compound 0.316 µM
[12] = second compound 0.316 µM, first compound 1 µM
[13] = second compound 1 µM, first compound 0.0316 µM
[14] = second compound 1 µM, first compound 0.1 µM
[15] = second compound 1 µM, first compound 0.316 µM
[16] = second compound 1 µM, first compound 1 µM
[17] = second compound 3.16 µM, first compound 0.0316 µM
[18] = second compound 3.16 µM, first compound 0.1 µM
[19] = second compound 3.16 µM, first compound 0.316 µM
[20] = second compound 3.16 µM, first compound 1 µM
[21] = second compound 10 µM, first compound 0.0316 µM
[22] = second compound 10 µM, first compound 0.1 µM
[23] = second compound 10 µM, first compound 0.316 µM
[24] = second compound 10 µM, first compound 1 µM
[25] = second compound 0.0316 µM, first compound 0.00316 µM
[26] = second compound 0.0316 µM, first compound 0.01 µM
[27] = second compound 0.1 µM, first compound 0.00316 µM
[28] = second compound 0.1 µM, first compound 0.01 µM
[29] = second compound 0.316 µM, first compound 0.00316 µM
[30] = second compound 0.316 µM, first compound 0.01 µM
[31] = second compound 1 µM, first compound 0.00316 µM
[32] = second compound 1 µM, first compound 0.01 µM
[33] = second compound 3.16 µM, first compound 0.00316 µM
[34] = second compound 3.16 µM, first compound 0.01 µM
[35] = second compound 10 µM, first compound 0.00316 µM
[36] = second compound 10 µM, first compound 0.01 µM
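Further: spheroids exposed to compounds for seven days before readout.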
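Wherever viability, T/C is given: 100% = DMSO vehicle control wells.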

SMILES: CC(Nc1ccc2c(c1)OCCn1cc(N3C(=O)OCC3C(F)F)nc1-2)C(N)=O (stereo unspecified) + CN1CCN(c2cc(C(=O)Nc3cc4cc(-c5cnn(C)c5)ccc4cn3)ccn2)CC1
- IC50 (second compound 0.0316 µM): 0.885 µM
- IC50 (second compound 0.1 µM): 0.271 µM
- IC50 (second compound 0.316 µM): < 0.0316 µM
- IC50 (second compound 1 µM): < 0.0316 µM
- IC50 (second compound 3.16 µM): < 0.0316 µM
- IC50 (second compound 10 µM): < 0.0316 µM
- viability, T/C [1]: 97.7%
- viability, T/C [2]: 66.2%
- viability, T/C [3]: 67%
- viability, T/C [4]: 47.1%
- viability, T/C (second compound 0.0316 µM, first compound 3.16 µM): 40.3%
- viability, T/C (second compound 0.0316 µM, first compound 10 µM): 24.4%
- viability, T/C [5]: 87.9%
- viability, T/C [6]: 64.3%
- viability, T/C [7]: 44.9%
- viability, T/C [8]: 38.6%
- viability, T/C (second compound 0.1 µM, first compound 3.16 µM): 26.5%
- viability, T/C (second compound 0.1 µM, first compound 10 µM): 18.3%
- viability, T/C [9]: 12.3%
- viability, T/C [10]: 9.13%
- viability, T/C [11]: 10.7%
- viability, T/C [12]: 6.85%
- viability, T/C (second compound 0.316 µM, first compound 3.16 µM): 4.58%
- viability, T/C (second compound 0.316 µM, first compound 10 µM): 7.75%
- viability, T/C [13]: 1.13%
- viability, T/C [14]: 0.87%
- viability, T/C [15]: 2.39%
- viability, T/C [16]: 0.6%
- viability, T/C (second compound 1 µM, first compound 3.16 µM): 0.73%
- viability, T/C (second compound 1 µM, first compound 10 µM): 0.42%
- viability, T/C [17]: 1.56%
- viability, T/C [18]: 1.01%
- viability, T/C [19]: 0.62%
- viability, T/C [20]: 0.69%
- viability, T/C (second compound 3.16 µM, first compound 3.16 µM): 1.66%
- viability, T/C (second compound 3.16 µM, first compound 10 µM): 1.62%
- viability, T/C [21]: 0.62%
- viability, T/C [22]: 0.46%
- viability, T/C [23]: 1.49%
- viability, T/C [24]: 0.44%
- viability, T/C (second compound 10 µM, first compound 3.16 µM): 4.05%
- viability, T/C (second compound 10 µM, first compound 10 µM): 2.58%

SMILES: CCN1CCN(Cc2ccc(Nc3ncc(F)c(-c4cc(F)c5nc(C)n(C(C)C)c5c4)n3)nc2)CC1 + CN1CCN(c2cc(C(=O)Nc3cc4cc(-c5cnn(C)c5)ccc4cn3)ccn2)CC1
- IC50 (second compound 0.0316 µM): > 1 µM
- IC50 (second compound 0.1 µM): > 1 µM
- IC50 (second compound 0.316 µM): < 0.00316 µM
- IC50 (second compound 1 µM): < 0.00316 µM
- IC50 (second compound 3.16 µM): < 0.00316 µM
- IC50 (second compound 10 µM): < 0.00316 µM
- viability, T/C [25]: 126%
- viability, T/C [26]: 113%
- viability, T/C [1]: 119%
- viability, T/C [2]: 112%
- viability, T/C [3]: 116%
- viability, T/C [4]: 103%
- viability, T/C [27]: 125%
- viability, T/C [28]: 122%
- viability, T/C [5]: 115%
- viability, T/C [6]: 115%
- viability, T/C [7]: 123%
- viability, T/C [8]: 107%
- viability, T/C [29]: 17.8%
- viability, T/C [30]: 17.6%
- viability, T/C [9]: 15.1%
- viability, T/C [10]: 19.9%
- viability, T/C [11]: 20.7%
- viability, T/C [12]: 24.4%
- viability, T/C [31]: 1.42%
- viability, T/C [32]: 5.67%
- viability, T/C [13]: 1.8%
- viability, T/C [14]: 1.54%
- viability, T/C [15]: 1.56%
- viability, T/C [16]: 6.64%
- viability, T/C [33]: 1.54%
- viability, T/C [34]: 3.86%
- viability, T/C [17]: 2.86%
- viability, T/C [18]: 1.78%
- viability, T/C [19]: 2.22%
- viability, T/C [20]: 5.76%
- viability, T/C [35]: 1%
- viability, T/C [36]: 3.61%
- viability, T/C [21]: 0.93%
- viability, T/C [22]: 1.25%
- viability, T/C [23]: 3.23%
- viability, T/C [24]: 3.64%

SMILES: COc1c(OCCCN2CCOCC2)ccc2c3n(c(=NC(=O)c4cnc(N)nc4)nc12)CCN3 + CN1CCN(c2cc(C(=O)Nc3cc4cc(-c5cnn(C)c5)ccc4cn3)ccn2)CC1
- IC50 (second compound 0.0316 µM): 0.0309 µM
- IC50 (second compound 0.1 µM): 0.0195 µM
- IC50 (second compound 0.316 µM): < 0.00316 µM
- IC50 (second compound 1 µM): < 0.00316 µM
- IC50 (second compound 3.16 µM): < 0.00316 µM
- IC50 (second compound 10 µM): < 0.00316 µM
- viability, T/C [25]: 98.2%
- viability, T/C [26]: 75.7%
- viability, T/C [1]: 46.8%
- viability, T/C [2]: 31.9%
- viability, T/C [3]: 15.7%
- viability, T/C [4]: 8.56%
- viability, T/C [27]: 85.5%
- viability, T/C [28]: 66.5%
- viability, T/C [5]: 36.7%
- viability, T/C [6]: 23.5%
- viability, T/C [7]: 9.69%
- viability, T/C [8]: 10.4%
- viability, T/C [29]: 10.5%
- viability, T/C [30]: 8.73%
- viability, T/C [9]: 5.42%
- viability, T/C [10]: 2.85%
- viability, T/C [11]: 2.66%
- viability, T/C [12]: 2.22%
- viability, T/C [31]: 1.16%
- viability, T/C [32]: 0.94%
- viability, T/C [13]: 0.73%
- viability, T/C [14]: 0.29%
- viability, T/C [15]: 1.53%
- viability, T/C [16]: 3.1%
- viability, T/C [33]: 0.95%
- viability, T/C [34]: 2.7%
- viability, T/C [17]: 0.9%
- viability, T/C [18]: 0.57%
- viability, T/C [19]: 1.8%
- viability, T/C [20]: 4.26%
- viability, T/C [35]: 0.66%
- viability, T/C [36]: 2.16%
- viability, T/C [21]: 2.49%
- viability, T/C [22]: 0.4%
- viability, T/C [23]: 0.59%
- viability, T/C [24]: 3.39%
